Assay results published in ChEMBL document CHEMBL1144852, “Optimization of a dihydropyrrolopyrazole series of transforming growth factor-beta type I receptor kinase domain inhibitors: discovery of an orally bioavailable transforming growth factor-beta receptor type I inhibitor as antitumor agent” (J Med Chem, 2008).
pEC50, pIC50: −log10 of the molar value.

Columns and labels:
[1] = Metabolic stability in rat microsomes; type: ADME, Microsome; also: time not given here
[2] = Antiproliferative activity against mink Mv1Lu-p3TP-Lux cells by luciferase reporter assay; type: functional, cell-based, Neovison vison; details: Neogale vison
[3] = test system: Caco-2; assay: Permeability from apical to basolateral side of human Caco-2 cell membrane; type: ADME, cell-based
[4] = test system: Liver microsomes; assay: Metabolic stability in human liver microsomes; type: ADME, Microsome; also: time not given here
[5] = molecular target: TGF-beta receptor type-1 (Homo sapiens, UniProt P36897, T204D); assay: Inhibition of TGFbeta type receptor 1 ALK5 (T204D) expressed in Sf9 cells
[6] = test system: NIH3T3; assay: Antiproliferative activity against mouse NIH3T3 cells by [3H]thymidine assay; type: functional, cell-based
[7] = molecular target: Tyrosine-protein kinase Blk (Homo sapiens) (UniProt P51451); assay: Inhibition of Blk at 20 uM
[8] = Inhibition of PKA at 20 uM
[9] = molecular target: Dual specificity mitogen-activated protein kinase kinase 7 (Homo sapiens) (UniProt O14733); assay: Inhibition of MKK7-beta at 20 uM
[10] = molecular target: Ribosomal protein S6 kinase alpha-5 (Homo sapiens) (UniProt O75582); assay: Inhibition of MSK1 at 20 uM
[11] = molecular target: Serine/threonine-protein kinase Sgk1 (Homo sapiens) (UniProt O00141); assay: Inhibition of SGK at 20 uM
[12] = molecular target: Mitogen-activated protein kinase 12 (Homo sapiens) (UniProt P53778); assay: Inhibition of Sapk3 at 20 uM
[13] = molecular target: Mitogen-activated protein kinase 9 (Homo sapiens) (UniProt P45984); assay: Inhibition of JNK2-alpha-2 at 20 uM
[14] = molecular target: Tyrosine-protein kinase ZAP-70 (Homo sapiens) (UniProt P43403); assay: Inhibition of ZAP70 at 20 uM
[15] = molecular target: 5'-AMP-activated protein kinase subunit beta-1 (Homo sapiens) (UniProt Q9Y478); assay: Inhibition of AMPK at 20 uM
[16] = molecular target: Dual specificity mitogen-activated protein kinase kinase 6 (Homo sapiens) (UniProt P52564); assay: Inhibition of MKK6 at 20 uM
[17] = molecular target: MAP kinase-activated protein kinase 2 (Homo sapiens) (UniProt P49137); assay: Inhibition of MAPKAPK2 at 20 uM
[18] = molecular target: Proto-oncogene tyrosine-protein kinase Src (Homo sapiens) (UniProt P12931); assay: Inhibition of cSRC at 20 uM
[19] = molecular target: Fibroblast growth factor receptor 3 (Homo sapiens) (UniProt P22607); assay: Inhibition of FGFR3 at 20 uM
[20] = molecular target: Serine/threonine-protein kinase Chk1 (Homo sapiens) (UniProt O14757); assay: Inhibition of Chk1 at 20 uM
[21] = molecular target: Cyclin-dependent kinase 2 (Homo sapiens) (UniProt P24941); assay: Inhibition of CDK2 at 20 uM
[22] = molecular target: Mitogen-activated protein kinase 13 (Homo sapiens) (UniProt O15264); assay: Inhibition of Sapk4 at 20 uM
[23] = molecular target: Protein kinase C alpha type (Homo sapiens) (UniProt P17252); assay: Inhibition of PKCalpha at 20 uM
[24] = molecular target: Glycogen synthase kinase-3 beta (Homo sapiens) (UniProt P49841); assay: Inhibition of GSK3-beta at 20 uM
[25] = molecular target: Rho-associated protein kinase 2 (Homo sapiens) (UniProt O75116); assay: Inhibition of Rock2 at 20 uM
[26] = molecular target: Dual specificity mitogen-activated protein kinase kinase 4 (Homo sapiens) (UniProt P45985); assay: Inhibition of MKK4 at 20 uM
[27] = molecular target: Tyrosine-protein kinase Lck (Homo sapiens) (UniProt P06239); assay: Inhibition of Lck at 20 uM
[28] = molecular target: Serine/threonine-protein kinase Chk2 (Homo sapiens) (UniProt O96017); assay: Inhibition of Chk2 at 20 uM
[29] = molecular target: Cyclin-dependent kinase 1 (Homo sapiens) (UniProt P06493); assay: Inhibition of CDK1 at 20 uM
[30] = Inhibition of CaMK2 at 20 uM
[31] = molecular target: Tyrosine-protein kinase Fyn (Homo sapiens) (UniProt P06241); assay: Inhibition of Fyn at 20 uM
[32] = molecular target: Vascular endothelial growth factor receptor 2 (Homo sapiens) (UniProt P35968); assay: Inhibition of KDR at 20 uM
[33] = molecular target: Ribosomal protein S6 kinase beta-1 (Homo sapiens) (UniProt P23443); assay: Inhibition of p70S6K at 20 uM
[34] = test system: Mus musculus; assay: Inhibition of TGFbeta type receptor 1 in human Calu6 cells xenografted mouse at 50 mg/kg, po by single point IVTI assay; type: functional, Calu-6; parameters: scale not given: the % may be the effect or the level left
[35] = molecular target: Mitogen-activated protein kinase 1 (Homo sapiens) (UniProt P28482); assay: Inhibition of MAPK1 at 20 uM
[36] = Inhibition of CK2 at 20 uM
[37] = molecular target: Mitogen-activated protein kinase 14 (Homo sapiens) (UniProt Q16539); assay: Inhibition of Sapk2-alpha at 20 uM
[38] = molecular target: RAF proto-oncogene serine/threonine-protein kinase (Homo sapiens) (UniProt P04049); assay: Inhibition of cRaf at 20 uM
[39] = molecular target: Protein kinase C beta type (Homo sapiens) (UniProt P05771); assay: Inhibition of PKC-beta-2 at 20 uM
[40] = molecular target: Serine/threonine-protein kinase N2 (Homo sapiens) (UniProt Q16513); assay: Inhibition of PRK2 at 20 uM
[41] = molecular target: Mitogen-activated protein kinase 10 (Homo sapiens) (UniProt P53779); assay: Inhibition of JNK3 at 20 uM
[42] = test system: Mus musculus; assay: Inhibition of TGFbeta type receptor 1 in orally dosed human Calu6 cells xenografted mouse by IVTI […] assay; type: functional, organism-based; details: Calu-6
[43] = molecular target: RAC-alpha serine/threonine-protein kinase (Homo sapiens) (UniProt P31749); assay: Inhibition of PKBalpha at 20 uM
[44] = molecular target: Mitogen-activated protein kinase 11 (Homo sapiens) (UniProt Q15759); assay: Inhibition of Sapk2-beta at 20 uM
[45] = molecular target: Protein kinase C delta type (Homo sapiens) (UniProt Q05655); assay: Inhibition of PKCdelta at 20 uM
[46] = Inhibition of JNK1-alpha at 20 uM
[47] = molecular target: MAP kinase-activated protein kinase 5 (Homo sapiens) (UniProt Q8IW41); assay: Inhibition of PRAK at 20 uM
[48] = molecular target: Dual specificity mitogen-activated protein kinase kinase 1 (Homo sapiens) (UniProt Q02750); assay: Inhibition of Mek1 at 20 uM
Sequence of Dual specificity mitogen-activated protein kinase kinase 1 (Homo sapiens) (Q02750 whole entry): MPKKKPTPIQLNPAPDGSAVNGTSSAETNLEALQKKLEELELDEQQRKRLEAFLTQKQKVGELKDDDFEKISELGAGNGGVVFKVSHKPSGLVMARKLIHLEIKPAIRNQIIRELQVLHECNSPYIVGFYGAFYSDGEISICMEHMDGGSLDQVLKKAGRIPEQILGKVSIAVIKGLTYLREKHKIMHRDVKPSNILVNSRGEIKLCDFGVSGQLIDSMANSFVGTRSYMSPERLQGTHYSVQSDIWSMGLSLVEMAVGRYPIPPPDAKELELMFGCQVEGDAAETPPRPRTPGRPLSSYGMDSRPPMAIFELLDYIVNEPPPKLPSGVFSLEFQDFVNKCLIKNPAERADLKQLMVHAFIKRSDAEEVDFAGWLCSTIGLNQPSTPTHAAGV

Sequence of Dual specificity mitogen-activated protein kinase kinase 4 (Homo sapiens) (P45985 whole entry): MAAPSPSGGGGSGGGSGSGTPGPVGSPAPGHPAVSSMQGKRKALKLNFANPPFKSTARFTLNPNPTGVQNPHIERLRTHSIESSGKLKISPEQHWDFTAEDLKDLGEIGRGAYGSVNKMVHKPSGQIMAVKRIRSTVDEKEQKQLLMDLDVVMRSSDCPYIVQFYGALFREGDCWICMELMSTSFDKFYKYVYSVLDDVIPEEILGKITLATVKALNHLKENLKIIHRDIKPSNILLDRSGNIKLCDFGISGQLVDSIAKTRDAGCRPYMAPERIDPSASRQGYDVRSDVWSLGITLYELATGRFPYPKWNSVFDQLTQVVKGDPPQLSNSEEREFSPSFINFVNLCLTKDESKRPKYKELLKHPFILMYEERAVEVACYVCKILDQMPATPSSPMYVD
Sequence of Tyrosine-protein kinase ZAP-70 (Homo sapiens) (P43403 whole entry): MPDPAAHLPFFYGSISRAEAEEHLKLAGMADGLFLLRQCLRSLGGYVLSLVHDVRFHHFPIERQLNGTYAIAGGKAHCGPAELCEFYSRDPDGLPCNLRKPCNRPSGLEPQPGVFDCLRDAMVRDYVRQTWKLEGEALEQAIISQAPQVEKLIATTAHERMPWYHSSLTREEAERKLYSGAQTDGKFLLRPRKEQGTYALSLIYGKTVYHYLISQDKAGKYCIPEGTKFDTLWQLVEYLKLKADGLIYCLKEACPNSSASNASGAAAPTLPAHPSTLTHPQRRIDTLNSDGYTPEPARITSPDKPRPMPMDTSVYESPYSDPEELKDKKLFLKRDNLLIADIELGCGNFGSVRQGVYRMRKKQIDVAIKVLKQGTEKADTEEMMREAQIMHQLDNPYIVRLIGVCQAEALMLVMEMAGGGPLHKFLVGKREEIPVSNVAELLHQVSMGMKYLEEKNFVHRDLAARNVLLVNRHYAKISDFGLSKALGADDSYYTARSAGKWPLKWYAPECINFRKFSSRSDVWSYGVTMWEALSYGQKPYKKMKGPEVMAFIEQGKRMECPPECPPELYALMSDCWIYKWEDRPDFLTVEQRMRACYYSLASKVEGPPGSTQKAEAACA
Sequence of Mitogen-activated protein kinase 13 (Homo sapiens) (O15264 whole entry): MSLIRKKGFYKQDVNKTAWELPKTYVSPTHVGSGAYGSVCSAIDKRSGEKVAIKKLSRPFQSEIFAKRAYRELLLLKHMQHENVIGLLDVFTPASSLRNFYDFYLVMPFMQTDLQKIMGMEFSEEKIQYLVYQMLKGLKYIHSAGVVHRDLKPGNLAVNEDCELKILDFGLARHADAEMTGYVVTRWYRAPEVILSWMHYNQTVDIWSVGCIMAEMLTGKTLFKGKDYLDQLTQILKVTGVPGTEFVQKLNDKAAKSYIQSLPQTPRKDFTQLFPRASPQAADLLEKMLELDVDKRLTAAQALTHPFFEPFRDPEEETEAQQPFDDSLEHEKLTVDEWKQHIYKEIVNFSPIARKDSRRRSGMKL
Sequence of Rho-associated protein kinase 2 (Homo sapiens) (O75116 whole entry, looked up): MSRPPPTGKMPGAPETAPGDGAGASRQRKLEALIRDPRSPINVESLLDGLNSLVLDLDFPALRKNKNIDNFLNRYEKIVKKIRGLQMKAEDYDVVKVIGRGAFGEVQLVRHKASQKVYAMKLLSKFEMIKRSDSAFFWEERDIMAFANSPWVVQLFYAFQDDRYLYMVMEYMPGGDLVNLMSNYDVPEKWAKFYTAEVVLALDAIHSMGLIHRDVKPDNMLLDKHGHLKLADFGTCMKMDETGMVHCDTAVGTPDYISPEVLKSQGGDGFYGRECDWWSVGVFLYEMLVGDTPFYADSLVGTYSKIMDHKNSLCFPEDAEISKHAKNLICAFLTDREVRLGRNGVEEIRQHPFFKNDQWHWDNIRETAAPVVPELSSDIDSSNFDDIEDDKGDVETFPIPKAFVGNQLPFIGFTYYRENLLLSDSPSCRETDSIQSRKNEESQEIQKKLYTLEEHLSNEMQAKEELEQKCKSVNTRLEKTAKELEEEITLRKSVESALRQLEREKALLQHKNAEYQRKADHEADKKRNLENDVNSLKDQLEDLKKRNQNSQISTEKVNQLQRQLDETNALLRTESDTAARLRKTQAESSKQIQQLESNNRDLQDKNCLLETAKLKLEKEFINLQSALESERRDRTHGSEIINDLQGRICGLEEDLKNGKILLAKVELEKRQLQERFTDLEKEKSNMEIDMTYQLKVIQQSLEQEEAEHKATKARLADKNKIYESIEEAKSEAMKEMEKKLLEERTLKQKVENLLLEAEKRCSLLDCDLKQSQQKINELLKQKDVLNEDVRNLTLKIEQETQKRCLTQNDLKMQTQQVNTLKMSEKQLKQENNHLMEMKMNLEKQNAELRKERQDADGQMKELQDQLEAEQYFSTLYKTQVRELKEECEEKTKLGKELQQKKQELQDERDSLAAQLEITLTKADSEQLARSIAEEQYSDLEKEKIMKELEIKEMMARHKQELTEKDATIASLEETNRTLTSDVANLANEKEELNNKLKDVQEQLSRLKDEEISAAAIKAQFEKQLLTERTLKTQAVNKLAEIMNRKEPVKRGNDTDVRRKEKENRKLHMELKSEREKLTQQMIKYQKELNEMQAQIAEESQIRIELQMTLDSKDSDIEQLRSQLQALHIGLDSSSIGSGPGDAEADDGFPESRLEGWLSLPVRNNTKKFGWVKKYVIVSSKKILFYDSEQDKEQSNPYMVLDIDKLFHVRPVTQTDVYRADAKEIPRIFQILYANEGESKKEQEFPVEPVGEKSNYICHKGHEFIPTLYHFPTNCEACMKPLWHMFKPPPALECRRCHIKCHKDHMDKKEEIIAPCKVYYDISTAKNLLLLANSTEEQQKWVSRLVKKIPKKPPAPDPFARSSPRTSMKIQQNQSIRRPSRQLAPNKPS
Sequence of RAC-alpha serine/threonine-protein kinase (Homo sapiens) (P31749 whole entry): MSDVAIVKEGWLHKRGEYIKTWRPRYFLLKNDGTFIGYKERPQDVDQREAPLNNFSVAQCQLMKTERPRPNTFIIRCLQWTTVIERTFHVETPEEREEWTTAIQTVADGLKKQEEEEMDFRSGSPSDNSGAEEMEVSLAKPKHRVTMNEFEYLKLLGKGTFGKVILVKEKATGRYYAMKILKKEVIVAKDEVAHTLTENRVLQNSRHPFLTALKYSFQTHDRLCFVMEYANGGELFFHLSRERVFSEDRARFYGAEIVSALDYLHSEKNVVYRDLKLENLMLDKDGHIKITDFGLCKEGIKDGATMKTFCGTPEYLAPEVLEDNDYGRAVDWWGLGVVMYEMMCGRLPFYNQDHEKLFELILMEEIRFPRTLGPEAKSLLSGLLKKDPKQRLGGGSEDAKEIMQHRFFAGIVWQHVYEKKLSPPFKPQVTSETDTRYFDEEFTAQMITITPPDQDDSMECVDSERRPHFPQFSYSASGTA
Sequence of Mitogen-activated protein kinase 12 (Homo sapiens) (P53778 whole entry): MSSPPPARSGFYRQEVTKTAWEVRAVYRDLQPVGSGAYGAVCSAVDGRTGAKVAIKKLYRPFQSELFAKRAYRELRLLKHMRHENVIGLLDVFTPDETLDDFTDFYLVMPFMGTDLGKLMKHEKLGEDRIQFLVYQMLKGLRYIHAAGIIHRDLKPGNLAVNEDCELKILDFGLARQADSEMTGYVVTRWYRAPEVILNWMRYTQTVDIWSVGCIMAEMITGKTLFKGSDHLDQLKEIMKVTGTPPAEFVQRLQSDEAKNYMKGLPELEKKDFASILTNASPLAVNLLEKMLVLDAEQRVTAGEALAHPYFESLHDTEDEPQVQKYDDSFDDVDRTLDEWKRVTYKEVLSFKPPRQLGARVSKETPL
Sequence of Serine/threonine-protein kinase Chk2 (Homo sapiens) (O96017 whole entry): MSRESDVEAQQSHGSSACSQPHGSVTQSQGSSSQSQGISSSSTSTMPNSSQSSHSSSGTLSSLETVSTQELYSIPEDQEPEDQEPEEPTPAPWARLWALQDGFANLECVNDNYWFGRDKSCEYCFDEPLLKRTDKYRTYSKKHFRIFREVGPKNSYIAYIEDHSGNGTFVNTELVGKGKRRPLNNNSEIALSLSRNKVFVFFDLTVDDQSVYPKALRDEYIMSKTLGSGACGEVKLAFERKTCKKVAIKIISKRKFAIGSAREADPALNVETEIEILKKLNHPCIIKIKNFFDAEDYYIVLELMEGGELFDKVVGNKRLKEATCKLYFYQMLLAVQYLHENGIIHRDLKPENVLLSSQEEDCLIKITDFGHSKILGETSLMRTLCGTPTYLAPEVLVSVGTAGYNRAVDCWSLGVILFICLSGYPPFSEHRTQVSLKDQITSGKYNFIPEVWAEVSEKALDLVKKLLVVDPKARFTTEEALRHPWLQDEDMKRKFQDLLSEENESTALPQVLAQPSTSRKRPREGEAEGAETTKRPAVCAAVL
Sequence of MAP kinase-activated protein kinase 2 (Homo sapiens) (P49137 whole entry, looked up): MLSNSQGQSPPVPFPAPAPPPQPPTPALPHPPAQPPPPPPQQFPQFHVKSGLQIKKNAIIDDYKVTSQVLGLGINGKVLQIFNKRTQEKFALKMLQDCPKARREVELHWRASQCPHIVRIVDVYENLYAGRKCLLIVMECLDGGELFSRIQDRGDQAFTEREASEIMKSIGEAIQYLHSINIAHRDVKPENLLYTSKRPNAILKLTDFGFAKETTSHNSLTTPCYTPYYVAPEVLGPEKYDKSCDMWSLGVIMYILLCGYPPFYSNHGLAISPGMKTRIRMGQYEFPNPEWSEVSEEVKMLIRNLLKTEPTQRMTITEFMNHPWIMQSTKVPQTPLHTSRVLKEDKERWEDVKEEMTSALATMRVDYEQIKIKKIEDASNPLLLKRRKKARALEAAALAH

## ClCCOc1ccc2c(-c3c(-c4ccccn4)nn4c3CCC4)ccnc2c1
[1]
  Stability: 99%
[2]
  pIC50: 7.18
[3]
  permeability: 54%
[4]
  Stability: 99%
[5]
  pIC50: 7.48
[6]
  pIC50: 7.01

## CN(C)CCOc1ccc2c(-c3c(-c4ccccn4)nn4c3CCC4)ccnc2c1
[7]
  inhibition: < 50%
[8]
  inhibition: < 50%
[9]
  inhibition: < 50%
[10]
  inhibition: < 50%
[1]
  Stability: 60%
[11]
  inhibition: < 50%
[12]
  inhibition: < 50%
[13]
  inhibition: < 50%
[14]
  inhibition: < 50%
[15]
  inhibition: < 50%
[16]
  inhibition: 62%
[17]
  inhibition: < 50%
[18]
  inhibition: < 50%
[19]
  inhibition: < 50%
[20]
  inhibition: < 50%
[21]
  inhibition: < 50%
[3]
  permeability: 28%
[22]
  inhibition: < 50%
[23]
  inhibition: < 50%
[24]
  inhibition: < 50%
[25]
  inhibition: < 50%
[26]
  inhibition: < 50%
[27]
  inhibition: 81%
[28]
  inhibition: < 50%
[29]
  inhibition: < 50%
[30]
  inhibition: < 50%
[31]
  inhibition: 18%
[32]
  inhibition: < 50%
[33]
  inhibition: < 50%
[34]
  Activity: 59%
[35]
  inhibition: 30%
[36]
  inhibition: < 50%
[37]
  inhibition: 87%
[38]
  inhibition: < 50%
[39]
  inhibition: < 50%
[40]
  inhibition: < 50%
[6]
  pIC50: 7.01
[41]
  inhibition: 51%
[42]
  pEC50: 6.51
[43]
  inhibition: < 50%
[44]
  inhibition: 29%
[45]
  inhibition: < 50%
[46]
  inhibition: < 50%
[47]
  inhibition: < 50%
[48]
  inhibition: < 50%

## CN1CCCC1CCCOc1ccc2c(-c3c(-c4ccccn4)nn4c3CCC4)ccnc2c1 (stereo not given)
[2]
  pIC50: 7.77
[5]
  pIC50: 7.14
[34]
  Activity: 75%
[6]
  pIC50: 7.70
[42]
  pEC50: 6.42

## Cc1cccc(-c2nn3c(c2-c2ccnc4ccc(Br)cc24)CCC3)n1
[2]
  pIC50: 7.26
[5]
  pIC50: 7.05
[6]
  pIC50: 6.47

## CN(C)C(=O)c1ccc(Oc2ccc3c(-c4c(-c5ccccn5)nn5c4CCC5)ccnc3c2)cc1
[2]
  pIC50: 4.82
[5]
  pIC50: 5.96
[6]
  pIC50: 5.29

## Cc1cccc(-c2nn3c(c2-c2ccnc4c(F)cccc24)CCC3)n1
[2]
  pIC50: 6.02
[5]
  pIC50: 6.03
[6]
  pIC50: 5.99

## COC(=O)c1ccc2nccc(-c3c(-c4cccc(C)n4)nn4c3CCC4)c2c1
[2]
  pIC50: 6.39
[5]
  pIC50: 6.28

## CN1CCN(CCCOc2ccc3c(-c4c(-c5ccccn5)nn5c4CCC5)ccnc3c2)CC1
[1]
  Stability: 46%
[2]
  pIC50: 7.36
[3]
  permeability: 13%
[4]
  Stability: 17%
[5]
  pIC50: 7.13
[34]
  Activity: 70%
[6]
  pIC50: 7.04
[42]
  pEC50: 5.96

## N#Cc1ccc(Oc2ccc3c(-c4c(-c5ccccn5)nn5c4CCC5)ccnc3c2)cc1
[5]
  pIC50: 5.92

## c1ccc(-c2n[nH]cc2-c2ccnc3ccccc23)nc1
[1]
  Stability: 98%
[3]
  permeability: 76%
[4]
  Stability: 22%
[6]
  pIC50: 7.09

## c1ccc(-c2nn3c(c2-c2ccnc4cc(OCC5CCCO5)ccc24)CCC3)nc1 (stereo not given)
[1]
  Stability: 97%
[2]
  pIC50: 7.10
[3]
  permeability: 42%
[4]
  Stability: 55%
[5]
  pIC50: 6.89
[6]
  pIC50: 6.60

## COc1cc(OC)c2nccc(-c3c(-c4cccc(C)n4)nn4c3CCC4)c2c1
[2]
  pIC50: 5.14
[5]
  pIC50: 5.42
[6]
  pIC50: < 4.70

## CN(C)Cc1ccc(Oc2ccc3c(-c4c(-c5ccccn5)nn5c4CCC5)ccnc3c2)cc1
[5]
  pIC50: 6.12
